Measurements: ChEMBL document CHEMBL2046268 (Eur J Med Chem, 2012)
Active and inactive are the calls of the source. No cut-off for these calls is given here. *1 amine or outer side, *2 acyl side, *3 side chain or, on linkers, in order; H or OH if unused. Where a SMILES comes first, the peptide text is derived from it. Bridges are numbered along the chain shown (N, C = ends). Roman numbers before positions name the chains, in order. [ ]: non-standard residue; d: D form. Actinocin(1to9) = Cc1c2oc3c(C)ccc(C(=O)[*:2])c3nc-2c(C(=O)[*:1])c(N)c1=O; NMeV = CN[C@H](C(=O)O)C(C)C; Sar = CNCC(=O)O

Tests used:
HeLa [1] = experiment: Induction of apoptosis in human HeLa cells at 12 uM after 2 to 4 hrs using annexin/PI staining by fluorescence microscopy; format: functional, cell-based
HeLa [2] = experiment: Cytotoxicity against human HeLa cells assessed as cell viability after 48 hrs by MTT assay; format: functional, cell-based
A549 [3] = experiment: Cytotoxicity against human A549 cells assessed as cell viability after 48 hrs by MTT assay; format: functional, cell-based; details: A549, 48 h
HeLa [4] = experiment: Cytotoxicity against human HeLa cells assessed as cell viability after 72 hrs by MTT assay; format: functional, cell-based
A549 [5] = experiment: Cytotoxicity against human A549 cells assessed as cell viability after 72 hrs by MTT assay; format: functional, cell-based; details: A549, 72 h
MCF7 [6] = experiment: Cytotoxicity against human MCF7 cells assessed as cell viability after 48 hrs by MTT assay; format: functional, cell-based; details: MCF7, 48 h
MCF7 [7] = experiment: Cytotoxicity against human MCF7 cells assessed as cell viability after 72 hrs by MTT assay; format: functional, cell-based; details: MCF7, 72 h
Vero [8] = experiment: Cytotoxicity against african green monkey Vero cells assessed as cell viability after 48 hrs by MTT assay; format: cell-based; details: Chlorocebus sabaeus
Vero [9] = experiment: Cytotoxicity against african green monkey Vero cells assessed as cell viability after 72 hrs by MTT assay; format: cell-based; details: Chlorocebus sabaeus
Vero [10] = experiment: Selectivity index, ratio of IC50 for african green monkey Vero cells to IC50 for human MCF7 cells after 48 hrs
HeLa [11] = experiment: Induction of apoptosis in human HeLa cells assessed as DNA fragmentation at 16 uM after 48 hrs by agarose gel electrophoresis; format: functional, cell-based
HeLa [12] = experiment: Induction of apoptosis in human HeLa cells assessed as DNA fragmentation at 16 to 32 uM after 24 hrs by agarose gel electrophoresis; format: functional, cell-based
HeLa [13] = experiment: Induction of apoptosis in human HeLa cells assessed as DNA fragmentation at 4 to 32 uM after 12 hrs by agarose gel electrophoresis; format: functional, cell-based
HeLa [14] = experiment: Induction of apoptosis in human HeLa cells assessed as chromatin condensation at 8 uM after 12 hrs using Hoechst 33342 staining by fluorescence microscopic analysis; format: functional, cell-based
HeLa [15] = experiment: Induction of apoptosis in human HeLa cells assessed as formation of apoptotic bodies at 8 uM after 12 hrs using Hoechst 33342 staining by fluorescence microscopic analysis; format: functional, cell-based
HeLa [16] = experiment: Induction of apoptosis in human HeLa cells assessed as increase in sub-G1 DNA content at 24 uM after 12 hrs using Propidium iodide staining by flow cytometry; format: functional, cell-based
Caspase-3 (Homo sapiens) [17] = target: T1, Caspase-3 (Homo sapiens) (UniProt P42574); experiment: Induction of caspase 3 activation in human HeLa cells using Ac-DEVD-pNA after 4 hrs by Bradford assay; format: cell-based
T1 sequence (whole entry): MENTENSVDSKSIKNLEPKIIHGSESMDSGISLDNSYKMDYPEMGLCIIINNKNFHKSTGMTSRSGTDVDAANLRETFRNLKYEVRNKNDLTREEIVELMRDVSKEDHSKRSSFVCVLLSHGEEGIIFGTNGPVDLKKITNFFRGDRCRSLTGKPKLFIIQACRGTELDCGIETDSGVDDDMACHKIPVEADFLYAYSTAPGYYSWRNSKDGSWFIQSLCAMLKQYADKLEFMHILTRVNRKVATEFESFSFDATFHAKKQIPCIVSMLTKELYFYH

Caspase-3 (Homo sapiens) [18] = target: T1, Caspase-3 (Homo sapiens); experiment: Induction of caspase 3 activation in human HeLa cells using Ac-DEVD-pNA at 4 uM after 4 hrs by Bradford assay; format: cell-based
Caspase-3 (Homo sapiens) [19] = target: T1, Caspase-3 (Homo sapiens); experiment: Induction of caspase 3 activation in human HeLa cells using Ac-DEVD-pNA at 8 uM after 4 hrs by Bradford assay; format: cell-based
Caspase-3 (Homo sapiens) [20] = target: T1, Caspase-3 (Homo sapiens); experiment: Induction of caspase 3 activation in human HeLa cells using Ac-DEVD-pNA at 24 uM after 8 hrs by Bradford assay; format: cell-based
HeLa [21] = experiment: Induction of apoptosis in human HeLa cells assessed as phosphatidylserine externalization at 2 to 16 uM using annexin/PI staining by fluorescence microscopy; format: functional, cell-based; details: TDE = time-dependent effect
HeLa [22] = experiment: Induction of apoptosis in human HeLa cells assessed as necrotic cells at 2 to 16 uM using annexin/PI staining by fluorescence microscopy; format: functional, cell-based; details: TDE = time-dependent effect
HeLa [23] = experiment: Induction of apoptosis in human HeLa cells at 8 uM after 2 to 4 hrs using annexin/PI staining by fluorescence microscopy; format: functional, cell-based
HeLa [24] = experiment: Induction of apoptosis in human HeLa cells at 16 uM after 2 to 4 hrs using annexin/PI staining by fluorescence microscopy; format: functional, cell-based
HeLa [25] = experiment: Induction of apoptosis in human HeLa cells assessed as phosphatidylserine externalization after 0.5 to 4 hrs using annexin/PI staining by fluorescence microscopy; format: functional, cell-based
HeLa [26] = experiment: Induction of apoptosis in human HeLa cells assessed as necrotic cells after 0.5 to 4 hrs using annexin/PI staining by fluorescence microscopy; format: functional, cell-based
Caspase-3 (Homo sapiens) [27] = target: T1, Caspase-3 (Homo sapiens); experiment: Increase in caspase 3 activation in human HeLa cells using Ac-DEVD-pNA at 32 uM after 4 hrs by Bradford assay relative to control; format: cell-based
HeLa [28] = experiment: Induction of apoptosis in human HeLa cells assessed as necrotic cells at 8 uM after 1 to 2 hrs using annexin/PI staining by fluorescence microscopy; format: functional, cell-based
Caspase-3 (Homo sapiens) [29] = target: T1, Caspase-3 (Homo sapiens); experiment: Increase in caspase 3 activation in human HeLa cells using Ac-DEVD-pNA at 12 uM after 4 hrs by Bradford assay relative to control; format: cell-based
HeLa [30] = experiment: Induction of apoptosis in human HeLa cells assessed as early apoptotic cells at 2 to 4 uM up to 4 hrs using annexin/PI staining by fluorescence microscopy; format: functional, cell-based
HeLa [31] = experiment: Induction of apoptosis in human HeLa cells assessed as DNA fragmentation by agarose gel electrophoresis; format: functional, cell-based
HeLa [32] = experiment: Induction of apoptosis in human HeLa cells assessed as phosphatidylserine externalization at 1 uM using annexin/PI staining by fluorescence microscopy; format: functional, cell-based; details: TDE = time-dependent effect
HeLa [33] = experiment: Induction of apoptosis in human HeLa cells assessed as necrotic cells at 1 uM using annexin/PI staining by fluorescence microscopy; format: functional, cell-based; details: TDE = time-dependent effect
HeLa [34] = experiment: Increase in apoptosis in human HeLa cells at 8 uM after 12 hrs using Hoechst 33342 staining by fluorescence microscopic analysis relative to control; format: functional
HeLa [35] = experiment: Induction of apoptosis in human HeLa cells assessed as late apoptotic cells at 2 to 4 uM up to 4 hrs using annexin/PI staining by fluorescence microscopy; format: functional, cell-based
HeLa [36] = experiment: Induction of apoptosis in human HeLa cells assessed as DNA fragmentation at 2 uM after 48 hrs by agarose gel electrophoresis; format: functional, cell-based
Caspase-3 (Homo sapiens) [37] = target: T1, Caspase-3 (Homo sapiens); experiment: Induction of caspase 3 activation in human HeLa cells using Ac-DEVD-pNA at 2 uM after 4 hrs by Bradford assay; format: cell-based

| Structure (SMILES) | IC50 (HeLa [2]) | IC50 (A549 [3]) | IC50 (HeLa [4]) | IC50 (A549 [5]) | IC50 (MCF7 [6]) | IC50 (MCF7 [7]) | IC50 (Vero [8]) | IC50 (Vero [9]) | Ratio IC50 (Vero [10]) | Activity (HeLa [11]) | Activity (HeLa [12]) | Activity (HeLa [13]) | Activity (HeLa [14]) | Activity (HeLa [15]) | Activity (Caspase-3 (Homo sapiens) [17]) | Activity (Caspase-3 (Homo sapiens) [18]) | Activity (Caspase-3 (Homo sapiens) [19]) | Activity (HeLa [21]) | Activity (HeLa [25]) | Activity (HeLa [26]) | other results |
| --- | --- | --- | --- | --- | --- | --- | --- | --- | --- | --- | --- | --- | --- | --- | --- | --- | --- | --- | --- | --- | --- |
| CC1=C(CO[Si](C)(C)C(C)(C)C)C(=O)O[C@@H]([C@@H](C)[C@H]2CC[C@H]3[C@@H]4C[C@H]5O[C@]56C(=O)C=CC(=O)[C@]6(C)[C@H]4CC[C@]23C)C1 | 1.7 µM | 5.3 µM | 2.1 µM | 2.9 µM | 0.5 µM | 0.2 µM | 3.1 µM | 4 µM | 6.2 | inactive | inactive | inactive | Active | Active | Dose-dependent effect | inactive | inactive | tde | Dose-dependent effect | Dose-dependent effect | Activity (HeLa [1]): Active; Activity (HeLa [16]): Active; Activity (Caspase-3 (Homo sapiens) [20]): Active; Activity (HeLa [22]): tde; Activity (HeLa [23]): Active; Activity (HeLa [24]): Active |
| CC1=C(CO[Si](C)(C)C(C)(C)C)C(=O)O[C@@H]([C@@H](C)[C@H]2CC[C@H]3[C@@H]4C[C@H]5O[C@]56[C@@H](O)C=CC(=O)[C@]6(C)[C@H]4CC[C@]23C)C1 | 0.9 µM | 1.5 µM | 1 µM | 1.5 µM | 0.7 µM | 0.7 µM | 0.7 µM | 0.9 µM | 1 | inactive | inactive | inactive | Active | Active | Dose-dependent effect | inactive | inactive | tde | Dose-dependent effect | Dose-dependent effect | Activity (HeLa [16]): Active; Activity (Caspase-3 (Homo sapiens) [27]): inactive; Activity (HeLa [22]): tde; Activity (HeLa [28]): inactive |
| CC1=C(CO)C(=O)O[C@@H]([C@@H](C)C2=CC[C@H]3[C@@H]4C[C@H]5O[C@]56[C@@H](O)C=CC(=O)[C@]6(C)[C@H]4CC[C@]23C)C1 [WITHARISTATIN] | 3.5 µM | 4.2 µM | 2.7 µM | 2.3 µM | 1.2 µM | 0.3 µM | 3.4 µM | 2.6 µM | 2.8 | inactive | inactive | inactive | Active | Active | Dose-dependent effect | inactive | inactive | tde | Dose-dependent effect | Dose-dependent effect | Activity (HeLa [16]): Active; fold change (FC) (Caspase-3 (Homo sapiens) [29]): 1; Activity (HeLa [22]): tde; Activity (HeLa [30]): Active |
| Cc1c2oc3c(C)ccc(C(=O)N[C@@H]4C(=O)N[C@H](C(C)C)C(=O)N5CCC[C@H]5C(=O)N(C)CC(=O)N(C)[C@@H](C(C)C)C(=O)O[C@@H]4C)c3nc-2c(C(=O)N[C@@H]2C(=O)N[C@H](C(C)C)C(=O)N3CCC[C@H]3C(=O)N(C)CC(=O)N(C)[C@@H](C(C)C)C(=O)O[C@@H]2C)c(N)c1=O [DACTINOMYCIN] (I: T[dV]P[Sar][NMeV] / II: T[dV]P[Sar][NMeV]; ester I:1-I:C, II:1-II:C; linker I:N-II:N via Actinocin(1to9)) | 0.0011 µM | 0.0072 µM | – | – | 0.024 µM | – | – | – | 3 | – | – | – | – | – | – | – | – | – | Dose-dependent effect | Dose-dependent effect | Activity (HeLa [31]): Active; Activity (HeLa [32]): tde; Activity (HeLa [33]): tde |
| CC1=C(C)C(=O)O[C@@H]([C@@H](C)[C@H]2CC=C3[C@@H]4C[C@H]5O[C@]56[C@@H](O)C=CC(=O)[C@]6(C)[C@H]4CC[C@@]32C)C1 | 3.5 µM | 2.6 µM | 2.9 µM | 2.1 µM | 1.3 µM | 0.3 µM | 6.2 µM | 1.2 µM | 1.7 | inactive | inactive | inactive | Active | Active | Dose-dependent effect | inactive | inactive | tde | Dose-dependent effect | Dose-dependent effect | Activity (HeLa [34]): 27%; Activity (HeLa [22]): tde; Activity (HeLa [30]): Active; Activity (HeLa [35]): Active |
| CN[C@@H]1C[C@H]2O[C@@](C)([C@@H]1OC)n1c3ccccc3c3c4c(c5c6ccccc6n2c5c31)C(=O)NC4 | – | – | – | – | – | – | – | – | – | – | – | – | – | – | – | – | – | – | – | – | Activity (HeLa [36]): Active; Activity (Caspase-3 (Homo sapiens) [37]): Active |
